# In PMC7735735, “Store-Operated Calcium Entry as a Therapeutic Target in Acute Pancreatitis: Discovery and Development of Drug-Like SOCE Inhibitors” (Journal of Medicinal Chemistry, 2020):
# Read-outs that look alike come from different tables or passages of the source.
# Assays:
# [1] = test system: chemically induced AP; design: method as in PMID 31050811; conditions: three different murine models; cited from earlier work
# [2] = test system: HEK cells; assay: HEK cell viability after 72 h at 50 μM with or without uridine (involvement of DHODH); conditions: 50 μM, 72 h; for reversal of cytotoxicity by uridine: uridine 100 μM
# [3] = test system: SOCE; assay: SOCE inhibition in HEK cells by fluorescence microscopy (calcium imaging); type: cell-based, human; conditions: for AUC, peak amplitude, and slope of the Ca2+-rise: selected compounds, Figure S1
# Experimental: With these two compounds in hand, two click reactions were performed and compounds 9 and 18 (Table 1), displaying the same substructures as the reference compound Synta66, were obtained with a yield of 31 and 60%, respectively. 9 and 18 were tested for activity on SOCE in HEK cells, a human embryonic kidney (HEK) cell line, by fluorescence microscopy, as described elsewhere.[16] After 600 s, Ca^2+ was added and intracellular levels were measured.
# Screening, dose–response experiments, and calcium imaging experiments were performed in HEK cells (ATCC, Rock, ville, MD, USA), as already reported elsewhere.[16]
# [4] = test system: ICRAC; design: method as in PMID 19648266; conditions: cited from earlier work
# [5] = test system: HEK cells
# [6] = test system: SOCE; design: method as in PMID 29038464; conditions: HEK cells; cited from earlier work
smiles,measurement,setting,value
"Cc1cccc(F)c1C(=O)Nc1cnc(-c2cc3c(cc2Cl)OC(F)(F)O3)cn1 [CM4620, reference compound]",protection in murine models of chemically induced AP,[1],protective
same,"cell viability / cytotoxicity at 50 μM, 72 h",[2],cytotoxic
same,reversal of cytotoxicity by uridine,[2],not reverted by uridine
"COc1ccc(F)c(-c2ccc(-n3cc(-c4cccc(C(=O)O)c4)nn3)cc2)c1 [Compound 40, 3-(1-(2′-Fluoro-5′-methoxy-[1,1′-biphenyl]-4-yl)-1H-1,2,3-triazol-4-yl)benzoic Acid]","AUC, peak amplitude, and slope of the Ca2+-rise",[3]; HEK cells,induced a drop in the three parameters
"COc1cccc(OC)c1-c1ccc(-c2cn(-c3cccc(C(=O)O)c3)nn2)cc1 [Compound 47, 3-(4-(2′,6′-Dimethoxy-[1,1′-biphenyl]-4-yl)-1H-1,2,3-triazol-1-yl)benzoic Acid]","effect on SOCE, in words",[3]; HEK cells,positive modulator of SOCE
same,AUC of calcium entry and peak amplitude vs control,"[3]; HEK cells, 3 μM",significantly increased the AUC of calcium entry and the peak amplitude
same,slope of the Ca2+-rise vs control,"[3]; HEK cells, 3 μM",absence of effect on slope
same,inhibition at 3 µM,"[3]; Homo sapiens, HEK293, HEK cells, 3 μM, negative value = increased SOCE, read-out: % SOCE inhibition (3 μM)",-22.8 ± 0.9%
"COc1cccc(-c2ccc(-c3cn(-c4cccc(C(=O)O)c4)nn3)cc2)c1OC [Compound 50, 3-(4-(2′,3′-Dimethoxy-[1,1′-biphenyl]-4-yl)-1H-1,2,3-triazol-1-yl)benzoic Acid]","AUC, peak amplitude, and slope of the Ca2+-rise",[3]; HEK cells,induced a drop in the three parameters
"COc1ccc(F)c(-c2ccc(-c3cn(-c4cccc(C(=O)O)c4)nn3)cc2)c1 [Compound 56, 3-(4-(2′-Fluoro-5′-methoxy-[1,1′-biphenyl]-4-yl)-1H-1,2,3-triazol-1-yl)benzoic Acid]","AUC, peak amplitude, and slope of the Ca2+-rise",[3]; HEK cells,induced a drop in the three parameters
"O=C(O)c1cccc(C(=O)Nc2ccc(-c3ccc4c(c3)OCCO4)cc2)c1 [Compound 64, 3-((4-(2,3-Dihydrobenzo[b][1,4]dioxin-6-yl)phenyl)carbamoyl)benzoic Acid]","effect on SOCE, in words",[3]; HEK cells,significantly reduced activity compared to the parent compound
same,"cell viability / cytotoxicity at 50 μM, 72 h",[2],significant cytotoxicity
same,reversal of cytotoxicity by uridine,[2],fully reverted by uridine
"O=C(O)c1cccc(NC(=O)c2ccc(-c3ccc4c(c3)OCCO4)cc2)c1 [Compound 69, 3-(4-(2,3-Dihydrobenzo[b][1,4]dioxin-6-yl)benzamido)benzoic Acid]","effect on SOCE, in words",[3]; HEK cells,significantly reduced activity compared to the parent compound
O=C(Nc1ccn(Cc2ccc(O)cc2C(F)(F)F)n1)c1c(F)cccc1F [GSK-7975A],protection in murine models of chemically induced AP,[1],protective
"COc1ccc(OC)c(-c2ccc(NC(=O)c3ccncc3F)cc2)c1 [Synta66, reference compound]",AUC and peak amplitude of the Ca2+-rise vs control,"[3]; HEK cells, 10 μM",significantly reduced AUC and peak amplitude
same,slope of the Ca2+-rise vs control,"[3]; HEK cells, 10 μM",significant effect on the slope
same,inhibition at 10 µM,"[3]; Homo sapiens, HEK293, HEK cells, 10 μM, negative value = increased Ca2+ entry vs control",90.8 ± 1.7%
same,inhibition at 3 µM,"[3]; Homo sapiens, HEK293, supplementary CSV, HEK cells, read-out: % SOCE Inhibition (3 µM)",90.8 ± 1.7%
same,"cell viability / cytotoxicity at 50 μM, 72 h",[2],significant cytotoxicity
same,IC50,[4],1.4 to 3 µM
Cc1c(-c2ccc(-c3ccccc3F)cc2)nc2ccc(F)cc2c1C(=O)O [brequinar],"cell viability / cytotoxicity at 50 μM, 72 h",[5],cytotoxic
same,reversal of cytotoxicity by uridine,[5],reverted by uridine addition
C/C(O)=C(\C#N)C(=O)Nc1ccc(C(F)(F)F)cc1 [teriflunomide],IC50,[6],4.3 ± 1 µM
